Legend:
Rattus norvegicus [1] = experiment: Activity against high density lipoprotein cholesterol level in obese female Zucker rat serum after 1 week at 100 mg/kg (percent change from pre-treatment); assay type: functional
Hepatocyte = experiment: Inhibition of lipid synthesis in primary rat hepatocytes by incorporation radiolabeled acetate into cellular lipids; assay type: functional, cell-based, Sprague-Dawley
Rattus norvegicus [2] = experiment: Activity against non high density lipoprotein cholesterol level in obese female Zucker rat serum after 1 week at 100 mg/kg (percent change from pre-treatment); assay type: functional
Rattus norvegicus [3] = experiment: Activity against non high density lipoprotein cholesterol level in obese female Zucker rat serum after 2 weeks at 100 mg/kg (percent change from pre-treatment); assay type: functional
Rattus norvegicus [4] = experiment: Activity against high density lipoprotein cholesterol level in obese female Zucker rat serum after 2 weeks at 100 mg/kg (percent change from pre-treatment); assay type: functional
Rattus norvegicus [5] = experiment: Activity against triglyceride level in obese female Zucker rat serum after 1 week at 100 mg/kg (percent change from pre-treatment); assay type: functional
Rattus norvegicus [6] = experiment: Activity against triglyceride level in obese female Zucker rat serum after 2 weeks at 100 mg/kg (percent change from pre-treatment); assay type: functional
Rattus norvegicus [7] = experiment: Tolerability of compound upto 2000 mg/kg; assay type: organism-based; parameters: dose 2000 mg/kg; conditions: in vivo
Rattus norvegicus [8] = experiment: Activity against non high density lipoprotein cholesterol level in obese female Zucker rat serum after 1 week at 30 mg/kg (percent change from pre-treatment); assay type: functional
Rattus norvegicus [9] = experiment: Activity against non high density lipoprotein cholesterol level in obese female Zucker rat serum after 2 weeks at 30 mg/kg (percent change from pre-treatment); assay type: functional
Rattus norvegicus [10] = experiment: Activity against high density lipoprotein cholesterol level in obese female Zucker rat serum after 1 week at 30 mg/kg (percent change from pre-treatment); assay type: functional
Rattus norvegicus [11] = experiment: Activity against high density lipoprotein cholesterol level in obese female Zucker rat serum after 2 weeks at 30 mg/kg (percent change from pre-treatment); assay type: functional
Rattus norvegicus [12] = experiment: Activity against triglyceride level in obese female Zucker rat serum after 1 week at 30 mg/kg (percent change from pre-treatment); assay type: functional
Rattus norvegicus [13] = experiment: Activity against triglyceride level in obese female Zucker rat serum after 2 weeks at 30 mg/kg (percent change from pre-treatment); assay type: functional
Rattus norvegicus [14] = experiment: Activity against non high density lipoprotein cholesterol level in obese female Zucker rat serum after 1 week at 53 mg/kg (percent change from pre-treatment); assay type: functional
Rattus norvegicus [15] = experiment: Activity against high density lipoprotein cholesterol level in obese female Zucker rat serum after 2 weeks at 53 mg/kg (percent change from pre-treatment); assay type: functional
Rattus norvegicus [16] = experiment: Activity against triglyceride level in obese female Zucker rat serum after 1 week at 53 mg/kg (percent change from pre-treatment); assay type: functional
Rattus norvegicus [17] = experiment: Activity against triglyceride level in obese female Zucker rat serum after 2 weeks at 53 mg/kg (percent change from pre-treatment); assay type: functional
Rattus norvegicus [18] = experiment: Activity against non high density lipoprotein cholesterol level in obese female Zucker rat serum after 2 weeks at 53 mg/kg (percent change from pre-treatment); assay type: functional
Rattus norvegicus [19] = experiment: Activity against high density lipoprotein cholesterol level in obese female Zucker rat serum after 1 week at 53 mg/kg (percent change from pre-treatment); assay type: functional
[20] = Rattus norvegicus, Sprague-Dawley, Hepatocyte, read-out: IC50

SMILES	Activity (Rattus norvegicus [1]) [%]	IC50 (Hepatocyte; [20]) [µM]	Activity (Rattus norvegicus [2]) [%]	Activity (Rattus norvegicus [3]) [%]	Activity (Rattus norvegicus [4]) [%]	Activity (Rattus norvegicus [5]) [%]	Activity (Rattus norvegicus [6]) [%]	also measured
CC(C)(CO)CCCCNC(=O)NCCCCC(C)(C)CO	66	3.4	-33	-5	92	-42	-31	–
CC(C)(CO)CCCCC(O)CCCCC(C)(C)CO	219	6.4	-61	-15	222	-70	-46	–
CC(C)(CO)CCCCOCCCCC(C)(C)CO	234	10.7	-38	11	366	-77	-71	Activity (Rattus norvegicus [7]): Active
CC(C)(CO)CCCCCCCCCC(C)(C)CO	189	–	-67	-75	137	-83	-82	–
CC(C)(CO)CCCCOC(=O)CCCCC(C)(C)CO	18	13	-25	-5	23	-20	7	–
CC(C)(CO)CCCCNC(=O)CCCCC(C)(C)CO	–	–	–	–	–	–	–	IC50 (Hepatocyte; hepatocyte): Not Active; Activity (Rattus norvegicus [8]): -21%; Activity (Rattus norvegicus [9]): -7%; Activity (Rattus norvegicus [10]): 2%; Activity (Rattus norvegicus [11]): 20%; Activity (Rattus norvegicus [12]): -20%; Activity (Rattus norvegicus [13]): -10%
CC(CO)(CCCCSCCCCC(C)(CO)c1ccccc1)c1ccccc1 (stereo not given)	–	64	–	–	–	–	–	–
CC(C)(CO)CCCCNC(=O)OCCCCC(C)(C)CO	60	0.8	10	84	65	-52	-4	–
CC(CO)(CCCC[S+]([O-])CCCCC(C)(CO)c1ccccc1)c1ccccc1 (stereo not given)	–	81	–	–	–	–	–	–
CC(C)(CO)CCCCNCCCCC(C)(C)CO	–	–	–	–	–	–	–	Activity (Rattus norvegicus [14]): 78%; IC50 (Hepatocyte; hepatocyte): Not Active; Activity (Rattus norvegicus [15]): 16%; Activity (Rattus norvegicus [16]): -24%; Activity (Rattus norvegicus [17]): -32%; Activity (Rattus norvegicus [18]): -10%; Activity (Rattus norvegicus [19]): -23%
CC(=O)C(CCCCC(C)(C)CO)CCCCC(C)(C)CO	–	46	–	–	–	–	–	Activity (Rattus norvegicus [8]): 15%; Activity (Rattus norvegicus [9]): 52%; Activity (Rattus norvegicus [10]): -14%; Activity (Rattus norvegicus [11]): -19%; Activity (Rattus norvegicus [12]): -6%; Activity (Rattus norvegicus [13]): 22%

— ChEMBL document CHEMBL1148579, “Influence of various central moieties on the hypolipidemic properties of long hydrocarbon chain diols and diacids” (J Med Chem, 2006)
